The structures appear in SMILES notation. pEC50: −log10 of the molar value.

The experiment relates to MOLM-13 cells. The experiment in a line: Caspase cleavage assay (Caspase3, 7 activation). In kind it is cell-based. The note with it: Homo sapiens, 16 h treatment, caspase substrate Z-DEVD-R110, read-out: c* Concentration at which 50% of the maximum signal was achieved (caspase activation). The procedure:
Caspase3, 7 Activation. MOLM-13 cells (30,000 cells/well) were plated in black 96-well plates (Corning Cat. #3603) in 40 μL of RPMI media, and left in an incubator (37° C., 5% CO2) for up to 24 h. Cells were treated for 16 h with compounds or DMSO (control) at desired concentrations in 50 μL of media. Drugs were added in triplicate wells. Following exposure of cells to Hsp70 inhibitors, 50 μL of buffer containing 10 mM HEPES (pH 7.5), 2 mM EDTA, 0.1% CHAPS and the caspase substrate Z-DEVD-R110 at 25 μM was added to each well. Plates were incubated until the signal stabilized and then the fluorescence signal of each well was measured in an Analyst GT microplate reader. The percentage increase in apoptotic cells was calculated by comparison of the fluorescence reading obtained from treated versus control cells.
For the molecule `CN1CCN(c2ncc(Sc3ccc(C(N)=O)cc3)c(OCc3cccc(N(C)C)c3)n2)CC1` [100a, 4-((4-((3-(Dimethylamino)benzyl)oxy)-2-(4-methylpiperazin-1-yl)pyrimidin-5-yl)thio)benzamide], the pEC50 was above 6.70.
Then `CN1CCN(c2ncc(Sc3ccc(C(N)=O)cc3)c(OCc3cccc(N4CCCC4)c3)n2)CC1` [100b, 4-((2-(4-Methylpiperazin-1-yl)-4-((3-(pyrrolidin-1-yl)benzyl)oxy)pyrimidin-5-yl)thio)benzamide], with 6.40 to 6.70.
Then `CN1CCN(c2ncc(Sc3ccc(C(N)=O)cc3)c(OCc3ccc(F)c(N(C)C)c3)n2)CC1` [100c, 4-((4-((3-(Dimethylamino)-4-fluorobenzyl)oxy)-2-(4-methylpiperazin-1-yl)pyrimidin-5-yl)thio)benzamide], with above 6.70; and `CC(Oc1nc(N2CCN(C)CC2)ncc1Sc1ccc(C(N)=O)cc1)c1cccc(N(C)C)c1` (stereo not shown) [100d, 4-((4-(1-(3-(Dimethylamino)phenyl)ethoxy)-2-(4-methylpiperazin-1-yl)pyrimidin-5-yl)thio)benzamide], with at most 5.92; and `CN1CCN(c2ncc(Sc3ccc(C(N)=O)cc3)c(OCc3cccc(NC4CC4)c3)n2)CC1` [100e, 4-((4-((3-(Cyclopropylamino)benzyl)oxy)-2-(4-methylpiperazin-1-yl)pyrimidin-5-yl)thio)benzamide], with above 6.70.
With `CN1CCN(c2ncc(Sc3ccc(C(N)=O)cc3)c(OCc3cccc(-n4cccn4)c3)n2)CC1` [100f, 4-((4-((3-(1H-Pyrazol-1-yl)benzyl)oxy)-2-(4-methylpiperazin-1-yl)pyrimidin-5-yl)thio)benzamide] the figure was 6.00 to 6.40; with `COc1cccc(COc2nc(N3CCN(C)CC3)ncc2Sc2ccc(C(N)=O)cc2)c1` [100g, 4-((4-((3-Methoxybenzyl)oxy)-2-(4-methylpiperazin-1-yl)pyrimidin-5-yl)thio)benzamide], above 6.70; with `CN1CCN(c2ncc(Sc3ccc(C(N)=O)cc3)c(OCCc3ccccc3)n2)CC1` [100h, 4-((2-(4-Methylpiperazin-1-yl)-4-phenethoxypyrimidin-5-yl)thio)benzamide], 6.40 to 6.70.
Turning to `CN1CCN(c2ncc(Sc3ccc(C(N)=O)cc3)c(OCc3ccco3)n2)CC1` [100i, 4-((4-(Furan-2-ylmethoxy)-2-(4-methylpiperazin-1-yl)pyrimidin-5-yl)thio)benzamide], the pEC50 was 6.00 to 6.40.
With `CN1CCN(c2ncc(Sc3ccc(C(N)=O)cc3)c(OCc3ccoc3)n2)CC1` [100j, 4-((4-(Furan-3-ylmethoxy)-2-(4-methylpiperazin-1-yl)pyrimidin-5-yl)thio)benzamide] the figure was 6.40 to 6.70.
Then `CN1CCN(c2ncc(Sc3ccc(C(N)=O)cc3)c(OCc3ccc(F)cc3)n2)CC1` [100m, 4-((4-((4-Fluorobenzyl)oxy)-2-(4-methylpiperazin-1-yl)pyrimidin-5-yl)thio)benzamide], with 6.40 to 6.70.
Consider `C[C@H](Oc1nc(N2CCN(C)CC2)ncc1Sc1ccc(C(N)=O)cc1)c1ccc(F)cc1` [100n, (S)-4-((4-(1-(4-Fluorophenyl)ethoxy)-2-(4-methylpiperazin-1-yl)pyrimidin-5-yl)thio)benzamide], for which the pEC50 is at most 5.92.
With `C[C@@H](Oc1nc(N2CCN(C)CC2)ncc1Sc1ccc(C(N)=O)cc1)c1ccc(F)cc1` [100o, (R)-4-((4-(1-(4-Fluorophenyl)ethoxy)-2-(4-methylpiperazin-1-yl)pyrimidin-5-yl)thio)benzamide] the figure was at most 5.92.
With `CC(=O)c1cccc(COc2nc(N3CCN(C)CC3)ncc2Sc2ccc(C(N)=O)cc2)c1` [100q, 4-((4-((3-Acetylbenzyl)oxy)-2-(4-methylpiperazin-1-yl)pyrimidin-5-yl)thio)benzamide] the figure was 6.00 to 6.40; with `CN1CCN(c2ncc(Sc3ccc(C(N)=O)cc3)c(OCc3ccnc(N)c3)n2)CC1` [100r, 4-((4-((2-Aminopyridin-4-yl)methoxy)-2-(4-methylpiperazin-1-yl)pyrimidin-5-yl)thio)benzamide], 5.92 to 6.00; with `CN1CCN(c2ncc(Sc3ccc(C(N)=O)cc3)c(OCc3cccc(I)c3)n2)CC1` [100s, 4-((4-((3-Iodobenzyl)oxy)-2-(4-methylpiperazin-1-yl)pyrimidin-5-yl)thio)benzamide], 6.40 to 6.70.
For the molecule `[2H]c1c([2H])c([2H])c(COc2nc(N3CCN(C)CC3)ncc2Sc2ccc(C(N)=O)cc2)c([2H])c1[2H]` [100t, 4-((4-(Benzyloxy-d5)-2-(4-methylpiperazin-1-yl)pyrimidin-5-yl)thio)benzamide], the pEC50 is 6.00 to 6.40.
With `[2H]C([2H])(Oc1nc(N2CCN(C)CC2)ncc1Sc1ccc(C(N)=O)cc1)c1ccccc1` [100u, 4-((4-(Benzyloxy-d2)-2-(4-methylpiperazin-1-yl)pyrimidin-5-yl)thio)benzamide] the figure was 6.00 to 6.40; with `CN1CCN(c2ncc(Sc3ccc(C(N)=O)cc3)c(OCc3ccc(I)cc3)n2)CC1` [100v, 4-((4-((4-Iodobenzyl)oxy)-2-(4-methylpiperazin-1-yl)pyrimidin-5-yl)thio)benzamide], at most 5.92.
With `CN1CCN(c2ncc(Sc3ccc(C(N)=O)cc3)c(OCc3cccc(C(N)=O)c3)n2)CC1` [100w, 3-(((5-((4-Carbamoylphenyl)thio)-2-(4-methylpiperazin-1-yl)pyrimidin-4-yl)oxy)methyl)benzamide] the figure was 6.00 to 6.40; with `CN1CCN(c2ncc(Sc3ccc(C(N)=O)cc3)c(OCc3cccc(N)c3)n2)CC1` [100x, 4-((4-((3-Aminobenzyl)oxy)-2-(4-methylpiperazin-1-yl)pyrimidin-5-yl)thio)benzamide], above 6.70.
Take `CN1CCN(c2ncc(Sc3ccc(N)nc3)c(OCc3ccc(F)cc3)n2)CC1` [146c, 5-((4-((4-Fluorobenzyl)oxy)-2-(4-methylpiperazin-1-yl)pyrimidin-5-yl)thio)pyridin-2-amine]: the pEC50 was 6.40 to 6.70.
With `CN1CCN(c2ncc(Sc3ccc(N)nc3)c(OCc3cccc(C(F)(F)F)c3)n2)CC1` [146e, 5-((2-(4-Methylpiperazin-1-yl)-4-((3-(trifluoromethyl)benzyl)oxy)pyrimidin-5-yl)thio)pyridin-2-amine] the figure was 6.00 to 6.40; with `NC(=O)c1ccc(Sc2cnc(N3CCOCC3)nc2OCc2ccccc2)cc1` [179a], at most 5.92; with `CN(C)[C@H]1CCN(c2ncc(Sc3ccc(C(N)=O)cc3)c(OCc3ccccc3)n2)C1` [179c, (S)-4-((4-(Benzyloxy)-2-(3-(dimethylamino)pyrrolidin-1-yl)pyrimidin-5-yl)thio)benzamide], at most 5.92.
With `CN(C)c1cccc(COc2nc(N3CCOCC3)ncc2Sc2ccc(C(N)=O)cc2)c1` [185a, 4-((4-((3-(Dimethylamino)benzyl)oxy)-2-morpholinopyrimidin-5-yl)thio)benzamide] the figure was 5.92 to 6.00; with `CC(C)N1CCN(c2ncc(Sc3ccc(C(N)=O)cc3)c(OCc3cccc(N(C)C)c3)n2)CC1` [185b, 4-((4-((3-(Dimethylamino)benzyl)oxy)-2-(4-isopropylpiperazin-1-yl)pyrimidin-5-yl)thio)benzamide], 5.92 to 6.00.
With `CN(C)c1cccc(COc2nc(N3CCN(CCO)CC3)ncc2Sc2ccc(C(N)=O)cc2)c1` [185d, 4-((4-((3-(Dimethylamino)benzyl)oxy)-2-(4-(2-hydroxyethyl)piperazin-1-yl)pyrimidin-5-yl)thio)benzamide] the figure was 6.00 to 6.40.

For the origin of these results see US10160729B2, “Hsp70 modulators and methods for making and using the same” (Memorial Sloan Kettering Cancer Center, priority 2014, dated 2018).
